From patent publication US20230330059A1, “3-PHENYL-2H-CHROMENE DERIVATIVE AND PHARMACEUTICAL COMPOSITION FOR PREVENTING OR TREATING ALZHEIMER'S, CONTAINING SAME” (NEUROBIONET, INC., priority 2020, published 2023)
Where two headings read alike, the source gives them in different places.

Tests used:
[1] = test system: nitric oxide production in LPS-treated BV2 cells; test: Nitric oxide production (Griess) in LPS-treated BV2 cells; format: cell-based, mouse; settings: for NO production: LPS-treated BV2 cells, FIG. 4 (lower), 8a; for IC50: Mus musculus, read-out: IC50 (NO production)
Procedure: BV2 cells were seeded at a density of 4 x 10^5 cells/well into 96-well plates, and primary microglial cells isolated from the brain of […] ICR mice were seeded at a density of 4 x 10^5 cells/well into 24-well plates.
The culture media were collected and measured for NO production using a Griess reagent solution (1% sulfanilamide and 0.1% N-1-naphthyl ethylenediamine dihydrochloride in 5% phosphoric acid). Briefly, a total of 50 µL of the supernatant was transferred to new 96-well plates and mixed with the same volume of the Griess reagent solution, followed by measuring OD at 570 nm. In addition, the cell viability was assayed in the same manner as in Experimental Example 2.

[2] = test system: LPS-treated primary microglia; test: Cell viability of LPS-treated primary microglia; format: cell-based, ICR mice; settings: FIG. 9b
[3] = test system: primary microglial cells treated with beta amyloid oligomer (AB1-40); test: Cell viability of primary microglia treated with beta amyloid oligomer; format: cell-based, ICR mice; settings: 5 µM for 1 hour, then AB1-40 10 µM 24 hours; FIG. 15
Procedure: Mouse-derived microglia (BV2 cells) purchased from the Korean Cell Line Bank were seeded at a density of 4x10^5 cells/well into 96-well plates, each well containing DMEM (Dulbecco’s Modified Eagle’s Media) supplemented with 10% FBS and 1% antibiotics, and stabilized by incubation for 24 hours. Thereafter, the cells were treated for 24 hours with various concentrations (0.5, 1, and 5 µM) of daidzein, o-desmethylangolensin (O-DMA), S-equal, SPA1413, and SPA1426. After removal of the medium, the cells were treated 0.5 mg/ml 3-(4,5-dimethylthiazol-2-yl)-2,5-diphenyltetrazolium bromide (MTT) solution 1 hour. The reduced formazan was dissolved in 150 µl of dimethyl sulfoxide (DMSO) and absorbance was read at 570 nm in a microspectrophotometer to determine cell viability. Cell viability of the cells treated with each sample was determined relative to that of the untreated normal control (Control), which was set to be 100%, and the results are depicted in FIGS. 3 and 4 (upper).
Primary microglial cells isolated from the brain of 1-year-old ICR mice were seeded at a density of 2x10^5 cells/well into 96-well plates and stabilized for 24 hours. Thereafter, the cells were treated with 5 µM of daidzein, S-equal, SPA1413, or SPA1426 for 1 hour and then with beta amyloid oligomer (AB1-40, 10 µM) for 24 hours at 37° C. Cell viability was assayed in the same manner as in Experimental Example 2.

HEK293 cells = test: MTT cytotoxicity in HEK293 cells; format: cell-based; settings: HEK293 cells, 1, 5 and 10 µM, 24 hours; FIG. 16
Procedure: (§1) HEK293 cells and the HEK293 cells overexpressing the dementia gene PSEN1 were seeded at a density of 2x10^5 cells/well into 96-well plates containing a DMEM medium and stabilized overnight, following by treating the cells with various concentrations (1, 5, and 10 µM) of the sample (SPA1413) for 24 hours. After removal of the culture medium, a 0.5 mg/ml MTT solution was added in an amount of 100 µl to each well and incubated at 37° C. for at least one hour in an incubator. The MTT was removed and 200 µl of DMSO was added to each well to dissolve the formazan. Absorbance was read at 540 nm on an ELISA reader to determine whether or the sample was toxic to the cells.

[4] = test system: HEK293 cells overexpressing the dementia gene PSEN1; test: MTT cytotoxicity in HEK293 cells overexpressing PSEN1; format: cell-based; settings: PSEN1 gene-overexpressing HEK293 cell line, 1, 5 and 10 µM, 24 hours, compared to the normal cells; FIG. 16
Procedure: as §1

[5] = test system: PSEN1 gene expression in PSEN1-overexpressed HEK293 cells; test: Inhibition of dementia gene PSEN1 expression (qRT-PCR); format: cell-based; settings: 0.1 and 1 µM, 24 hours, FIG. 17
Procedure: HEK293 cells and PSEN1-overexpressed HEK293 cells were seeded at a density of 1x10^6 cells/well into 6-well plates containing a DMEM medium and stabilized overnight, following by treating the cells with or without various concentrations (0.1 and 1 µM) of the sample (SPA1413) for 24 hours. Thereafter, RNA was extracted from the cells, using TRIzol reagent. Reverse transcription was performed using the GoScript™ reverse transcription system according to the manufacturer’s instructions. A qRT-PCR reaction was performed in a volume of 20 µl using the standard SYBR Green PCR kit and Roche Light® Instrument according to the standard protocol. Relative gene expression levels were calculated by the 2^-ΔΔCt method.

5xFAD mice = test: Passive avoidance test; format: in vivo, mouse; settings: 10 mg/kg orally once a day for 1 month, FIG. 22
Procedure: The experiment was conducted with 5X-FAD transgenic mice having Alzheimer’s disease introduced therein. The 5X FAD mouse is an animal model of Alzheimer’s disease with all the human AD-linked mutations: Swedish (K670N/ […]), Florida (1716V) and London (V7171) in APP (695) and M146L in Presenilin 1
(§2) 5xFAD mice were purchased from Jackson Lab and bred in and in through mating with C57B16/SJL F1 females, based on the information provided by the supplier. Through genotyping, the mice were divided into groups of 7-9 members, including normal groups (WT) and genetically modified groups (5xFAD): 4.5-month-old 5xFAD mice (Tg) and age-matched controls (WT). To the WT or Tg groups, a vehicle or SPA1413 was orally administered at a dose of 10 mg/kg once a day for 1 month. To test whether SPA1413 has a therapeutic effect on Alzheimer’s disease, the mice in 5 groups (WT-vehicle; WT-SPA1413 5xFAD-vehicle; 5xFAD-SPA1413; and 5xFAD-donepezil) were evaluated for cognitive ability.
Passive avoidance test: Memory impairment was evaluated using the passive avoidance test. […] After being trained to learn that an unpleasant stimulus was given thereto in the dark room, the mice were evaluated for memory for the corresponding content as step-through latency.

[6] = test system: oligomeric Aβ proteins in cortex and hippocampus of 5xFAD mice; test: Western blotting of oligomeric Aβ proteins in brain tissue; format: in vivo, mouse; settings: 10 mg/kg, FIG. 28
Procedure: as §2
After the animal behavior experiments, the brain tissues of the experimental animals were recovered, the brain tissues in the cortex and hippocampus regions of one hemisphere were separated, frozen, and stored until use. The tissues were thawed on the test day and treated with a lysis solvent, followed by protein isolation and quantitation. […]
The images of the western blots analyzed for oligomeric Aβ proteins (60-70 kDa) in the cortex and hippocampus of 5xFAD-vehicle and 5xFAD-SPA1413 group animals are presented in FIG. 28, and the band intensity was analyzed and quantified using the image j program.

| Structure (SMILES) | NO production [1] | IC50 ([1]; BV-2, 24 h) [µM] | cell viability compared to the group treated with LPS [2] | cell viability after beta amyloid oligomer treatment [3] | cell viability (MTT) (HEK293 cells) | cell viability (MTT) [4] | PSEN1 gene expression [5] | step-through latency (5xFAD mice) | level of oligomeric Aβ proteins (60-70 kDa) in the cortex and hippocampus [6] | IC50 ([1]; BV-2, LPS (100 ng/ml) 24 hours, Griess reagent, cell type not stated in Table 1) [µM] |
| --- | --- | --- | --- | --- | --- | --- | --- | --- | --- | --- |
| Oc1ccc(C2=Cc3ccc(O)cc3OC2)cc1 [SPA1413, 3-(4-Hydroxyphenyl)-2H-chromen-7-ol] | decreased NO production in dose-dependent manners | 5.2 | increased | significantly increased in cell viability | the same as or almost similar to the normal control group | increase in cell viability | inhibited the upregulated expression of PSEN1 gene | significantly recovered | significantly reduce |  |
| CCCC(=O)Oc1ccc(C2=Cc3ccc(OC(=O)CCC)cc3OC2)cc1 [SPA1426, 4-(7-(butyryloxy)-2H-chromen-3-yl)phenyl butyrate] | decreased NO production in dose-dependent manners |  | increased |  |  |  |  |  |  | 3.67 |
